SMILES | melting point
Cc1cc(Oc2ccc3nc(COc4ccc(CC(Nc5ccccc5C(=O)c5ccccc5)C(=O)O)cc4)n(C)c3c2)cc(C)c1NC(=O)Nc1ccc(C(F)(F)F)cc1 (stereo not given) | 165 to 172 °C
CC(CCC(=O)NCCNCCCNC(=O)CN1CCN(CC(=O)O)CCN(CC(=O)O)CCN(CC(=O)O)CC1)C1CCC2C3C(O)CC4CC(O)CCC4(C)C3CC(O)C12C (stereo not given) | 154 °C
CCCCCCCCCCCCCCCCCCOC(=O)CCSCc1c(C)c(O)c(C)c(CSCCC(=O)OCCCCCCCCCCCCCCCCCC)c1C | 66 to 70 °C
O=C(CC(=O)c1cc(F)c(F)cc1F)OCc1ccc(OCCCCCCCCCCC2c3c(c4ccccc4c4ccccc34)-c3c2c2ccccc2c2ccccc32)cc1 | 58 to 60 °C
CCCCc1nc2c(N)nc3ccccc3c2n1CCCCNC(=O)Nc1ccc(Oc2ccc(NC(=O)NCCCCn3c(CCCC)nc4c(N)nc5ccccc5c43)cc2)cc1 | 152 to 156 °C
COc1cc(OC)c(/C=C/C(c2ccc(OC)c(NC(=N)N)c2)S(=O)(=O)C(/C=C/c2c(OC)cc(OC)cc2OC)c2ccc(OC)c(NC(=N)N)c2)c(OC)c1 (stereo not given) | 174 to 176 °C
CN=S(=O)(Cc1ccc(C(F)(F)F)nc1)c1nc(-c2ccc(OC)cc2)cs1 (stereo not given) | 158 to 161 °C
CC1(C)CC(N(c2nc(N(C3CC(C)(C)NC(C)(C)C3)C3CC(C)(C)NC(C)(C)C3)nc(N(C3CC(C)(C)NC(C)(C)C3)C3CC(C)(C)NC(C)(C)C3)n2)C2CC(C)(C)NC(C)(C)C2)CC(C)(C)N1 | 325 to 330 °C
CCC(CC)Nc1cc(C)nc(Oc2c(C)cc(C)cc2C)c1[N+](=O)[O-] | 160 to 162 °C
CNC(=O)[C@@H](NC(=O)[C@@H](NC(=O)c1c(I)c(NC(C)=O)c(I)c(C(=O)O)c1I)C(C)C)C(C)C | 247 to 248 °C
Cc1cc(-n2ccnc2)c2cccc(OCc3c(Cl)ccc(S(=O)(=O)N4CCCC4C(=O)NCC4CCN(C(=O)CCCC(=O)OC(C)(C)C)CC4)c3Cl)c2n1 (stereo not given) | 112 °C
O=P(O)(C(F)(F)C(F)(F)C(F)(F)C(F)(F)C(F)(F)C(F)(F)C(F)(C(F)(F)F)C(F)(F)F)C(F)(F)C(F)(F)C(F)(F)C(F)(F)C(F)(F)C(F)(F)C(F)(C(F)(F)F)C(F)(F)F | 170 to 172 °C
O=C(NCC(COC(C(F)(F)F)(C(F)(F)F)C(F)(F)F)(COC(C(F)(F)F)(C(F)(F)F)C(F)(F)F)C(=O)O)OCC1c2ccccc2-c2ccccc21 | 104 to 105 °C
NC(=O)OCCCN1CCN2c3ccccc3Cc3ccccc3C2C1 (stereo not given) | 160 to 161 °C
COCCOCCOc1cc2c3cc(OCCOCCOC)c(OCCOCCOC)cc3c3cc(OCCOCCOC)c(OCCOCCOC)cc3c2cc1OCCOCCOC | 54 °C
O=C(OCCCCCCOC1CCCCO1)c1ccc(Oc2c3c(c(Oc4ccc(C(=O)OCCCCCCOC5CCCCO5)cc4)c4ccccc24)C(=O)c2ccccc2C3=O)cc1 (stereo not given) | 114 to 117 °C
CCCCCCCCCCCCCCCCCCSCCOP(=O)(Cc1cc(C(C)(C)C)c(O)c(C)c1C)OCCSCCCCCCCCCCCCCCCCCC | 71 to 73 °C
CC(C)[Si](OC(=O)C(Cc1cc(I)c(Oc2cc(I)c(OCC3CO3)c(I)c2)c(I)c1)NC(=O)OC(C)(C)C)(C(C)C)C(C)C (stereo not given) | 109 °C
N=C(NC(=O)OCc1ccccc1)N(CCCC(NC(=O)C(Cc1ccccc1)NC(=O)OCc1ccccc1)C(=O)Oc1cccc2ccccc12)C(=O)OCc1ccccc1 (stereo not given) | 125 to 130 °C
[C-]#[N+]C1Cc2ccccc2C(=C)c2ccccc21 (stereo not given) | 96 to 98 °C

SMILES | melting point
Cc1cc(-c2nc3c(S(C)=O)cc(Cl)nn3c2-c2ccnc(N)c2)ccc1F (stereo not given) | 216 to 217 °C
[C-]#[N+]Cc1nc(-c2ccccc2)c(-c2ccccc2)o1 | 95 to 96 °C
O=C(O)Cc1cccc(-c2cc(CCCC(=O)N3CCC(CCCC4CCN(C(=O)CCCc5ccc(OC6OC(CO)C(O)C(O)C6O)c(-c6cccc(CC(=O)O)c6)c5)CC4)CC3)ccc2OC2OC(CO)C(O)C(O)C2O)c1 (stereo not given) | 119 to 121 °C
COc1cc2c(cc1-c1cc3c4cc(-c5ccccc5)ccc4n(CCC(C)CCCC(C)C)c3cc1OC)c1cc(-c3ccccc3)ccc1n2CCC(C)CCCC(C)C (stereo not given) | 155 °C
CCCNc1nc2cccc(C(=O)OCC)c2n1Cc1ccc(-c2ccccc2-c2nnn[nH]2)cc1 | 170 to 172 °C
C=Cc1cccc2c(=O)c(C(=O)CCC)c[nH]c12 | 206 to 208 °C
CC(=O)c1cc2cc(Br)ccc2oc1=O | 227 °C
CSCC[C@H](NC(=O)[C@H](CC(C)C)NC(=O)[C@H](C)NC(=O)[C@@H](N)CC(C)C)C(=O)NCCNc1ccc(NCCNC(=O)[C@H](CCSC)NC(=O)[C@H](CC(C)C)NC(=O)[C@H](C)NC(=O)[C@@H](N)CC(C)C)c2c1C(=O)c1c(O)ccc(O)c1C2=O | 210 °C
C[C@H](CCN(CCCCNC(=O)[C@@H](NC(=O)CCCCCCNC(=NC(=O)OCc1ccccc1)NC(=O)OCc1ccccc1)O[C@@H](C)c1ccc2ccccc2c1)C(=O)OCc1ccccc1)NC(=O)OCc1ccccc1 | 58 °C
Cc1ccc(S(=O)(=O)NNOC(C)C)cc1 | 112 to 113 °C
CS(C)(=O)=NS(=O)(=O)c1cccc(F)c1C#N | 184 °C
NC(=O)c1cnn(-c2ncc(C(F)(F)F)cc2Cl)c1NC(=O)C1(F)CC1 | 204 °C
CC(Br)C(=O)N=S(C)(=O)c1ccccc1 (stereo not given) | 109 to 110 °C
CCN(CC)CCN=S(=O)(c1ccccc1)c1cccnc1 (stereo not given) | 130 °C
NC(=O)c1c(C(=O)O)cnn1-c1ccccc1 | 234 to 235 °C
CCCCCCCCCCCCCCCCCCN(CCCCCCCCCCCCCCCCCC)C(=O)c1c(NS(=O)(=O)c2cccc(C(C)=O)c2)cc2ccccc2c1OC(=O)c1ccccc1 | 91 to 93 °C
CCCCCCCCCCCCCCCC(=O)OCC(CSCC(NC(=O)OCc1cccc2c1Cc1ccccc1-2)C(=O)O)OC(=O)CCCCCCCCCCCCCCC (mixture of isomers) | 82 to 84 °C
C=CC1=C(C)c2cc3[nH]c(cc4nc(cc5[nH]c(cc1n2)c(C)c5CCC(=O)OCCCCCCN(C)C)C(CCC(=O)OCCCCCCN(C)C)=C4C)c(C)c3C=C | 160 to 165 °C
CC(C)[Si](OC(=O)Cc1cc(I)c(Oc2cc(I)c(OCC3CO3)c(I)c2)c(I)c1)(C(C)C)C(C)C (stereo not given) | 120 °C
CC(C)CCCC(C)C1CCC2C3CC=C4CC(N(CCCNC(=O)CCNC(=O)CCNC(=O)CCCCCNc5ccc([N+](=O)[O-])c6nonc56)S(=O)(=O)c5ccccc5[N+](=O)[O-])CCC4(C)C3CCC12C (stereo not given) | 113 to 114 °C

SMILES | melting point
CCCCCCCCCCCCCCCCCCSCCOC1OC(COC(C)=O)C(OC2OC(COC(C)=O)C(OC3OC(COC(C)=O)C(OC(C)=O)C(OC(C)=O)C3OC(C)=O)C(OC(C)=O)C2OC(C)=O)C(OC(C)=O)C1N1C(=O)c2ccccc2C1=O (stereo not given) | 150 to 152 °C
CC(COC(=O)CCc1cc(C(C)(C)C)c(O)c(C(C)(C)C)c1)(COC(=O)CCc1cc(C(C)(C)C)c(O)c(C(C)(C)C)c1)COC(=O)CCc1cc(C(C)(C)C)c(O)c(C(C)(C)C)c1 | 55 to 78 °C
C=C(C)[C@@H]1CC[C@]2(C(=O)N[C@@H]3C[C@H](C(=O)OCc4ccccc4)C3(C)C)CC[C@]3(C)[C@H](CC[C@@H]4[C@@]5(C)CC[C@H](OC(=O)CC(C)(C)C(=O)O)C(C)(C)[C@@H]5CC[C@]43C)[C@@H]12 | 64.7 to 100 °C
CCCCCCOCC1CN(c2cc3c(cc2F)c(=O)c(C(=O)O)cn3CC)CCN1 (stereo not given) | 121 to 124 °C
Cc1ccc2cccc(OCc3c(Cl)ccc(S(=O)(=O)N4CCC[C@H]4C(=O)NC4CCN(C(=O)CN(C=NC(=O)OC(C)(C)C)NC(=O)OC(C)(C)C)CC4)c3Cl)c2n1 | 123 °C
O=C(O)CCC(Cc1cccc(Cl)c1)(C(=O)C=Cc1ccc(Cl)cc1)c1ccccc1 (stereo not given) | 137 to 139 °C
CCCCCCCCCCCCc1c2c(c(CCCCCCCCCCCC)c3c1-c1ccc(Br)cc1C3=C(C#N)C#N)-c1ccc(Br)cc1C2=C(C#N)C#N | 136 to 137 °C
CN=S(=O)(NC(=O)Nc1nc(C)nc(OC)n1)c1ccccc1Cl (stereo not given) | 154 to 160 °C
CCCCCCCCCCCCCCCCNc1ccc(C(=O)OCC(COC(=O)c2ccc(NCCCCCCCCCCCCCCCC)cc2)OC(=O)c2ccc(NCCCCCCCCCCCCCCCC)cc2)cc1 | 117 to 118 °C
CC(C)[C@H](NC(=O)N(C)Cc1cscn1)C(=O)N[C@@H](Cc1ccccc1)[C@H](O)[C@@H](O)[C@H](Cc1ccccc1)NC(=O)[C@@H](NC(=O)N(C)Cc1csc(N)n1)C(C)C | 118 to 120 °C
CC(C)[C@H](NC(=O)N(C)Cc1ccccn1)C(=O)N[C@@H](Cc1ccccc1)[C@H](O)[C@@H](O)[C@H](Cc1ccccc1)NC(=O)[C@@H](NC(=O)N(C)Cc1cscn1)C(C)C | 84 to 88 °C
[C-]#[N+]C(C)C(=O)NCC1CC2CC(C1C)C2(C)C (stereo not given) | 58 to 59 °C
CCCCCCCCCCCCSc1cc(SCCCCCCCCCCCC)c2ccc3c(SCCCCCCCCCCCC)cc(SCCCCCCCCCCCC)c4ccc1c2c43 | 110 °C
C=CC(=O)OCCCCCCOc1ccc(C(=O)Oc2ccc(OC(=O)c3ccc(OCCCCCCOC(=O)C=C)cc3)c(C(=O)OCCCCCCCCOC(=O)c3ccco3)c2)cc1 | 36 °C
Cc1ccc(C(=O)Oc2ccc3c(OC(=O)c4ccc(C)c(OCc5ccccc5)c4)c4ccccc4cc3c2OC(=O)c2ccc(C)c(OCc3ccccc3)c2)cc1OCc1ccccc1 | 132 to 135 °C
Cn1cncc1C(O)(c1ccoc1)c1ccc2c(c1)c(-c1cccc(Cl)c1)cc1nnnn12 (stereo not given) | 188 °C
COc1cc(C(=O)Oc2ccc3c(OC(=O)c4ccc(OCc5ccccc5)c(OC)c4)c4cc(OC(=O)c5ccc(OCc6ccccc6)c(OC)c5)ccc4cc3c2)ccc1OCc1ccccc1 | 186 to 189 °C
CS(=O)(=O)c1ccc(C(Cc2ccccc2Cl)C(=O)Nc2nc3ccccc3o2)cc1 (stereo not given) | 107 to 108 °C
CC(=O)OCC1OC(NC(=O)C2=CC=C(Cl)C(N)([N+](=O)[O-])C2)C(OC(C)=O)C(OC(C)=O)C1OC1OC(COC(C)=O)C(OC(C)=O)C(OC(C)=O)C1OC(C)=O (stereo not given) | 115 to 119 °C
CC1(C)CC2(CC(C)(C)N1)NC(=O)N(CC(COc1ccc(C(C)(C)c3ccc(OCC(CN4C(=O)NC5(CC(C)(C)NC(C)(C)C5)C4=O)OC(=O)Nc4ccccc4)cc3)cc1)OC(=O)Nc1ccccc1)C2=O (stereo not given) | 202 to 207 °C
